Source: patent US20030125242A1, “Polypeptides comprising multimers of nuclear localization signals or of protein transduction domains and their use for transferring molecules into cells” (priority 1999, published 2003)
Where no end group is shown, it is not given here.

Key:
COS7 cells [1] = test: transfection efficiency at 4° C. compared with 37° C.; type: cell-based; settings: 4 h transfection, COS7, luciferase after 24 h
Description: Cells were transfected with 1 μg of CMVL-W complexed with C(YGRKKRRQRRRG)24 at N/P=10 for 4 h at 4° C. or at 37° C. Luciferase activity was measured (10 sec) after 24 h.
At low temperatures such as 4° C. energy-dependent processes like the endosomal uptake are suppressed. For this reason transfection efficiency at 4° C. could be an indicator for the extend of endosomal uptake which takes place during the transfection period. Transfection was performed in the way as described above but for the 4° C. experiment the 24 well plate was incubated in a cool room at 4° C. for 4 h.

COS7 cells [2] = test: effect of peptide on gene transfer mediated by PEI, fractured Dendrimers and Lipofectamine; type: cell-based
HeLa S6 cells [3] = test: nuclear transport of BSA covalently linked to peptide in digitonin permeabilized cells; type: cell-based; settings: 600 nM peptide/BSA-BODIPY, 30 min, fluorescence microscope
16HBE14o-cells [4] = test: luciferase transfection assay with vector/DNA (CMVL-W) complexes; type: cell-based
HeLa S6 cells [5] = test: fluorescence in situ hybridisation of plasmid pEGFP after transfection (fluorescence microscopy and CLSM); type: cell-based; settings: for location of plasmid DNA by CLSM: confocal laser scanning microscopy; for nuclear localization of plasmid DNA / cells showing signals in the nuclear region: fluorescence microscopy
DNase I = test: stability of vector/DNA complexes against DNase I digestion, agarose gel; type: physicochemical; settings: higher enzyme concentrations (2.5, 5, 10 U DNase I), 1 h at 37° C., 3 μg pEGFP
16HBE14o cells = test: tracking of DNA-TOTO-3/(PKKKRKVG)4-FITC complexes on their way to the nucleus; type: cell-based; settings: 100% confluent cells, 5 μg CMVL-W, 24 μg peptide (N/P 8)
16HBE14o-cells [6] = test: proportion of transgene (GFP) expressing cells by flow cytometry; type: cell-based; settings: 1 μg pEGFP/(PKKKRKVG)4 complexes (N/P 8), 24 hours
Description: (A, B, D, E) Flow cytometry of 16HBE14o-cells transfected with DNA (pEGFP) or DNA complexed with (PKKKRKVG)4. Transfection was stopped after 24 hours. Cells were treated with trypsin and resuspended in medium. FCS: Forward scatter. FH-1: green channel for the GFP signal. (A, B) Control. Cells were only transfected with 1 μg pEGFP. Mean: 5.66. M1: 96% of total cells. M2: 4% of total cells. (D, E) Transfection with 1 μg pEGFP/(PKKKRKVG)4 complexes (N/P 8). Mean: 10.25. M1: 55% of total cells. M2: 45% of total cells. Near half the cell population expresses green fluorescence protein. (C, F) Fluorescence microscopy images of HeLa S6 cells transfected with (C) 1 μg pEGFP or (F) 1 μg pEGFP complexed with (PKKKRKVG)4 (N/P 8). Images were taken with a 40× objective (exposure time: 2 sec).
It was examined how many cells express the transgene product. 16HBE14o-cells were transfected with 1 μg pEGFP/(PKKKRKVG)4 complexes N/P 8 (24 hours) and measured by flow cytometry.

16HBE14o-cells [7] = test: inhibition of gene transfer by excess of free peptide, luciferase assay; type: cell-based; settings: 30 fold molar excess of free peptide added 20 min before the complexes

C(YGRKKRRQRRRG)2: dimer of HIV-1 TAT protein transduction domain YGRKKRRQRRR with G, N-terminal C (SEQ ID NO: 30) (CYGRKKRRQRRRG; also: dimer: C(YGRKKRRQRRRG)2, linkage not given here)
decrease of transfection efficiency at 4° C. compared to 37° C. (COS7 cells [1]): 19 fold
effect on gene transfer mediated by PEI (COS7 cells [2]; peptide N/P=1, then PEI 25 kD N/P 10): enhances gene transfer
effect on gene transfer mediated by fractured dendrimers (COS7 cells [2]; peptide N/P=1, then fractured Dendrimer N/P 4.5): enhances gene transfer

wheat germ agglutinin
nuclear transport of covalently coupled BSA-BODIPY (HeLa S6 cells [3]): no signal was seen in the nucleus

(PKTKRKVG)4: tetramer containing mutant large T-NLS (SEQ ID NO: 6); threonin mutant known to be transport deficient [reference compound]
nuclear transport of covalently coupled BSA-BODIPY (HeLa S6 cells [3]): no signal was seen in the nucleus
gene transfer efficiency compared with (PKKKRKVG)4/DNA complexes (16HBE14o-cells [4]): significantly lower gene transfer efficiency
location of plasmid DNA by CLSM (HeLa S6 cells [5]; 2 hours): arranged around the nuclear membrane
nuclear localization of plasmid DNA (HeLa S6 cells [5]; 2 hours): nuclear localization of plasmid DNA was not seen
location of plasmid DNA by CLSM (HeLa S6 cells [5]; 24 hours): arranged around the nuclear membrane
cells showing signals in the nuclear region (HeLa S6 cells [5]; 24 hours): 14.7%

(PKKKRKVG)4: tetramer of the wild-type SV40 large T-antigen NLS PKKKRKV with a glycin added at the end of each NLS (SEQ ID NO: 5) (also: tetramer of PKKKRKVG, linkage not given here)
nuclear transport of covalently coupled BSA-BODIPY (HeLa S6 cells [3]): transports the coupled BSA into the nucleus
cell transfection compared with DNA/Dendrimer-complexes (16HBE14o-cells [4]): cell transfection as high as with DNA/Dendrimer-complexes
cell transfection higher as with DNA/poly-L-lysine 2.9 kD/INF7a complexes (16HBE14o-cells [4]): 1000 fold
enhancement of cell transfection compared to studies without endosomolytic agents (16HBE14o-cells [4]): 10 fold
transfection rates compared with different non-viral vectors (16HBE14o-cells [4]; 1 μg CMVL-W, 4.8 μg (PKKKRKVG)4 (N/P 8), luciferase after 24 h): almost as high transfection rates as with Dendrimer/DNA complexes
increase of relative light units (RLU) per mg cell protein in comparison to poly-L-lysine (16HBE14o-cells [4]; 1 μg CMVL-W, vs poly-L-lysine 2.9 kD/DNA complexes, luciferase after 24 h): 100 fold
transfection results in comparison to transfections without (PKKKRKVG)4 (16HBE14o-cells [4]; 100% confluent cells, CMVL-W/Dendrimer complexes plus (PKKKRKVG)4): 10 fold
effect of added (PKKKRKVG)4 on transfection efficiency of PEI/CMVL-W and Dendrimer/CMVL-W complexes (16HBE14o-cells [4]; added in increasing concentrations to polymer/DNA complexes): significant increase of transfection efficiency
DNA protection of complexed DNA against DNase I digestion (DNase I): still can bee seen
localization of complexes after 4 h (16HBE14o cells; 4 h): most of the complexes were outside the nucleus
localization of peptide and DNA after 30 h (16HBE14o cells; 30 h): could be found in the nucleus
location of plasmid DNA by CLSM (HeLa S6 cells [5]; 2 hours): already plasmid DNA in the nucleus
nuclear localization of plasmid DNA (HeLa S6 cells [5]; 2 hours): plasmid DNA could be detected within the nuclear region
location of plasmid DNA by CLSM (HeLa S6 cells [5]; 24 hours): accumulated in the nucleus
cells showing signals in the nuclear region (HeLa S6 cells [5]; 24 hours): 68.9%
M1 of total cells (16HBE14o-cells [6]): 55%
M2 of total cells (16HBE14o-cells [6]): 45%
Mean (GFP signal, flow cytometry) (16HBE14o-cells [6]): 10.25
cells showing a GFP signal (16HBE14o-cells [6]): Approximately 50%
inhibition of gene transfer of DNA/(PKKKRKVG)4 complexes by free peptide (16HBE14o-cells [7]): complete blockade of gene transfer
